# Test results: ChEMBL document CHEMBL3046232, “Synthesis, pharmacological evaluation and molecular docking studies of indanone derivatives” (2012)
# How the values were obtained:
# Assay type in all cases: functional
# Rattus norvegicus [1] = assay: Anti-inflammatory activity in Rattus norvegicus Wistar albino (rat) assessed as protection against carrageenan-induced paw edema at 50 mg/kg after 30 min
# Mus musculus [2] = assay: Analgesic activity in Mus musculus Swiss albino (mouse) assessed as increase in reaction time of paw licking or jump response at 50 mg/kg, po after 60 min by hot plate method
# Aspergillus niger [3] = assay: Antimicrobial activity against at Aspergillus niger at 100 ug/ml by cup-plate method; conditions: read-out: IZ
# Rattus norvegicus [4] = assay: Anti-inflammatory activity in Rattus norvegicus Wistar albino (rat) assessed as protection against carrageenan-induced paw edema at 50 mg/kg after 60 min
# Mus musculus [5] = assay: Analgesic activity in Mus musculus Swiss albino (mouse) assessed as increase in reaction time of paw licking or jump response at 50 mg/kg, po after 30 min by hot plate method
# Penicillium chrysogenum [6] = assay: Antimicrobial activity against at Penicillium chrysogenum at 25 ug/ml by cup-plate method; conditions: read-out: IZ
# Mus musculus [7] = assay: Analgesic activity in Mus musculus Swiss albino (mouse) assessed as increase in reaction time of paw licking or jump response at 50 mg/kg, po after 90 min by hot plate method
# Rattus norvegicus [8] = assay: Anti-inflammatory activity in Rattus norvegicus Wistar albino (rat) assessed as protection against carrageenan-induced paw edema at 50 mg/kg after 2 hr
# Escherichia coli [9] = assay: Antimicrobial activity against at Escherichia coli at 25 ug/ml by cup-plate method; conditions: read-out: IZ
# Penicillium chrysogenum [10] = assay: Antimicrobial activity against at Penicillium chrysogenum at 100 ug/ml by cup-plate method; conditions: read-out: IZ
# Rattus norvegicus [11] = assay: Anti-inflammatory activity in Rattus norvegicus Wistar albino (rat) assessed as protection against carrageenan-induced paw edema at 50 mg/kg after 90 min
# Aspergillus niger [12] = assay: Antimicrobial activity against at Aspergillus niger at 25 ug/ml by cup-plate method; conditions: read-out: IZ
# Aspergillus niger [13] = assay: Antimicrobial activity against at Aspergillus niger at 50 ug/ml by cup-plate method; conditions: read-out: IZ
# Penicillium chrysogenum [14] = assay: Antimicrobial activity against at Penicillium chrysogenum at 50 ug/ml by cup-plate method; conditions: read-out: IZ
# Rattus norvegicus [15] = assay: Anti-inflammatory activity in Rattus norvegicus Wistar albino (rat) assessed as protection against carrageenan-induced paw edema at 50 mg/kg after 3 hr
# Bacillus subtilis [16] = assay: Antimicrobial activity against at Bacillus subtilis at 100 ug/ml by cup plate method; conditions: read-out: IZ
# Escherichia coli [17] = assay: Antimicrobial activity against at Escherichia coli at 100 ug/ml by cup-plate method; conditions: read-out: IZ
# Bacillus subtilis [18] = assay: Antimicrobial activity against at Bacillus subtilis at 25 ug/ml by cup plate method; conditions: read-out: IZ
# Escherichia coli [19] = assay: Antimicrobial activity against at Escherichia coli at 50 ug/ml by cup-plate method; conditions: read-out: IZ
# Bacillus subtilis [20] = assay: Antimicrobial activity against at Bacillus subtilis at 50 ug/ml by cup plate method; conditions: read-out: IZ
# Mus musculus [21] = assay: Analgesic activity in Mus musculus Swiss albino (mouse) assessed as increase in reaction time of paw licking or jump response at 20 mg/kg, po after 90 min by hot plate method
# Mus musculus [22] = assay: Analgesic activity in Mus musculus Swiss albino (mouse) assessed as increase in reaction time of paw licking or jump response at 20 mg/kg, po after 60 min by hot plate method
smiles,measurement,setting,value
O=C1c2ccccc2-c2noc(-c3ccc([N+](=O)[O-])cc3)c21,Activity,Rattus norvegicus [1],10.92%
same,Activity,Mus musculus [2],5.91%
same,zone of inhibition at 100 µg/mL,Aspergillus niger [3],16.2 mm
same,Activity,Rattus norvegicus [4],13.35%
same,Activity,Mus musculus [5],3.95%
same,zone of inhibition at 25 µg/mL,Penicillium chrysogenum [6],4.5 mm
same,Activity,Mus musculus [7],8.55%
same,Activity,Rattus norvegicus [8],16.21%
same,zone of inhibition at 25 µg/mL,Escherichia coli [9],5.5 mm
same,zone of inhibition at 100 µg/mL,Penicillium chrysogenum [10],15 mm
same,Activity,Rattus norvegicus [11],18.51%
same,zone of inhibition at 25 µg/mL,Aspergillus niger [12],4.75 mm
same,zone of inhibition at 50 µg/mL,Aspergillus niger [13],13.5 mm
same,zone of inhibition at 50 µg/mL,Penicillium chrysogenum [14],11 mm
same,Activity,Rattus norvegicus [15],17.21%
same,zone of inhibition at 100 µg/mL,Bacillus subtilis [16],14.5 mm
same,zone of inhibition at 100 µg/mL,Escherichia coli [17],18.5 mm
same,zone of inhibition at 25 µg/mL,Bacillus subtilis [18],4.5 mm
same,zone of inhibition at 50 µg/mL,Escherichia coli [19],13 mm
same,zone of inhibition at 50 µg/mL,Bacillus subtilis [20],6.75 mm
O=C([O-])Cc1ccccc1Nc1c(Cl)cccc1Cl.[Na+] [DICLOFENAC SODIUM],Activity,Mus musculus [21],34.62%
same,Activity,Mus musculus [22],27.59%
